{"source": "patent US4755522A", "about": "“Derivatives of N-[3-(2,4,6-trimethoxybenzoyl)propyl]piperidine, and their use in therapeutics” (priority 1986, dated 1988)", "key": {"mice": {"system": "mice", "type": "in vivo", "conditions": "260 mg/kg I.P. (footnote *)"}, "cardio-vascular system": {"system": "cardio-vascular system", "experiment": "Action on the cardio-vascular system in the anaesthetized dog", "type": "in vivo", "protocol": "(b) Action on the cardio-vascular system (in the dog).\n(§1) 3 dogs (average weight, 12 kg) anaesthetized with nembutal, receive the compound by intra-duodenal route at successive doses of 0.1-0.5-2.5-10 and 20 mg/kg.\nThe arterial pressure, the cardiac rate, the femoral arterial flow, the vertebral arterial flow, the rectal and skin temperatures are all measured. The coloration of the skin is observed.\n(§2) 3 dogs (average weight, 14 kg) anaesthetized with nembutal, received the CRL 41,390 by intra-duodenal route, at successive doses of 0.1-0.5-1-2.5-5-10-20 mg/kg, then a supplementary dose of 10 mg/kg I.V.\nThe arterial pressure, the cardiac frequency, the femoral arterial flow, the vertebral arterial flow, the rectal and cutaneous temperatures, were measured. The coloration of the skin was observed."}, "isoprenaline": {"system": "isoprenaline", "experiment": "Effects of isoprenaline on arterial pressure and cardiac rate after the compound (dog)", "type": "in vivo", "protocol": "as §2"}, "noradrenaline": {"system": "noradrenaline", "experiment": "Hypertension with noradrenaline after the compound (dog)", "type": "in vivo", "protocol": "as §1, §2\nHypertension to noradrenaline is not modified: at 2 mcg/kg of noradrenaline, the systolic arterial pressure passes, after administration of the product, from 160 to 290 mmHg/161 to 289 mmHg in the control."}, "ectopic heart-beats": {"system": "ectopic heart-beats", "experiment": "Ectopic heart-beats in dogs with coronary artery ligature a few weeks earlier", "type": "in vivo, dog", "conditions": "I.D.; for minimal effective dose: Canis lupus familiaris, intraduodenal, read-out: dose re-establishing a normal rhythm", "protocol": "as §1\nTwo of these three dogs having undergone a ligature of a coronary artery a few weeks earlier still presented numerous ectopic heart-beats."}, "[1]": {"system": "arrhythmias caused by injection of adrenaline", "experiment": "Arrhythmias caused by adrenaline + petroleum ether (dog)", "type": "in vivo", "conditions": "39.1 mg/kg I.D.", "protocol": "In the third dog, arrhythmias were caused by injection of adrenaline (10 mcg/kg), preceded by an intra-trachealinjection of petroleum ether (0.1 ml/kg before and after administration of the 39.1 mg/kg (in cumulative doses) of the compound. On the E.C.G., the number of beats of sinusoidal origin and the number of ectopic beats per minute are counted which follow the injection of adrenaline. |Dose of compound | Number of beats in 1 minute |mg/kg I.D. ectopic sinusoidal"}, "[2]": {"system": "left descending coronary artery ligature", "experiment": "Dog with left descending coronary artery ligatured 24 hours earlier, I.V.", "type": "in vivo", "protocol": "In a dog of which the left descending coronary artery had been ligatured 24 hours earlier, the compound was administered by intravenous route at increasing doses: 0.5-1-2.5-5-10 mg/kg. every 30 minutes."}, "[3]": {"system": "arrhythmias caused by adrenaline", "experiment": "Arrhythmias caused by adrenaline I.V., 4 days after coronary ligature (dog)", "type": "in vivo", "protocol": "4 days after the ligature of the coronary, this same dog received injections I.V. of 5 mcg/kg of adrenaline which caused arrhythmias. The number of ectopic beats caused by adrenaline reduces starting from the dose of 5 mg/kg I.V. while the percentage of ectopic beats referred to the total cardiac frequency is 79% in comparison with 100% in the control and 46% 10 minutes after the dose of 10 mg/kg (64% after 40 minutes, 88% after 90 minutes)."}, "awakened dog": {"system": "awakened dog", "experiment": "Toxic effects in the awakened dog, I.V. cumulative", "type": "in vivo"}, "[4]": {"system": "ventricular fibrillation (V.F.) by inhalation of chloroform", "experiment": "Lawson's test in mice (ventricular fibrillation by inhalation of chloroform)", "type": "in vivo", "text": "(c) Anti-arrhythmic action in the mouse. Research on the anti-arrhythmic activity by intraperitoneal route on Lawson's test in mice (ventricular fibrillation (V.F.) by inhalation of chloroform, all or nothing response) has given the following results (10 mice per dose)."}, "[5]": {"system": "arrhythmias with K-strophanthin", "experiment": "Arrhythmias with K-strophanthin in the guinea-pig", "type": "in vivo", "conditions": "10 mg/kg I.V.", "protocol": "(§3) The compound was administered by intravenous route at a dose of 10 mg/kg to a series of 10 albino guinea-pigs of 380 to 495 g, anaesthetized with urethane.\n(§4) 5 minutes later, they receive an I.V. perfusion of the product causing arrhythmia at a dosage of 0.09 mg/min. in a volume of 0.6 ml/min.\n(§5) The compound is compared with quinidine at a dose of 5 mg/kg I>V> and with a series of controls.\n(§6) Lots are drawn for the treatments.\nA--Action on arrhythmias with K-strophanthin."}, "[6]": {"system": "arrhythmias with aconitine", "experiment": "Arrhythmias with aconitine in the guinea-pig", "type": "in vivo", "protocol": "as §3, §4, §5, §6\nB--Action on arrhythmias with aconitine."}, "cardiac arrhythmias": {"system": "cardiac arrhythmias", "experiment": "Treatment of cardiac arrhythmias in man", "type": "in vivo", "conditions": "capsules or tablets 200 mg, 3 to 4 per day", "protocol": "The compound of example 1 in the form of capsules or tablets with doses of 200 mg, 3 to 4 per day, has given good results in the treatment of cardiac arrhythmias in man."}}, "note": "Values joined by “and” are separate entries in the source; they are usually repeats but may differ in a detail not shown here. Identical values can stand only once. “Also recorded” adds a separate entry of the source. Like-named read-outs stand apart in the source and are kept apart here.", "data": [{"molecule": "COc1cc(OC)c(C(=O)CCCN2CCCC(CO)C2)c(OC)c1.Cl", "note": "(stereo not shown) [CRL 41,391, N-[3-(2,4,6-trimethoxybenzoyl)propyl]-3-piperidinemethanol hydrochloride]", "values": [{"measurement": "convulsions", "setting": "mice", "result": "convulsions"}, {"measurement": "effect on heart rate", "setting": "cardio-vascular system; 20 mg/kg I.D.", "result": "slightly reduces the heart rate"}, {"measurement": "minimal effective dose", "setting": "cardio-vascular system; Canis lupus familiaris, intraduodenal, I.D., read-out: dose from which femoral flow increases", "result": 5, "unit": "mg/kg"}, {"measurement": "effect on rectal and cutaneous temperatures", "setting": "cardio-vascular system; I.D.", "result": "does not modify the rectal and cutaneous temperatures"}, {"measurement": "effect on vertebral flow", "setting": "cardio-vascular system; I.D.", "result": "reduces the vertebral flow"}, {"measurement": "effect on femoral flow", "setting": "cardio-vascular system; I.D., starting at 5 mg/kg", "result": "increases the femoral flow"}, {"measurement": "effect on the arterial pressure", "setting": "cardio-vascular system; intra-duodenal, successive doses to 20 mg/kg, nembutal", "result": "no effect on the arterial pressure"}, {"measurement": "diastolic arterial pressure after the product, before isoprenaline", "setting": "isoprenaline; 39.1 mg/kg I.D. cumulative, control 120", "result": 107, "unit": "mmHg"}, {"measurement": "cardiac rate after the product, before isoprenaline", "setting": "isoprenaline; 39.1 mg/kg I.D. cumulative, control 157", "result": 160, "unit": "beats/minute"}, {"measurement": "diastolic arterial pressure after the product, with isoprenaline", "setting": "isoprenaline; 10 mcg/kg isoprenaline I.V., 39.1 mg/kg I.D. cumulative, control 37", "result": 36, "unit": "mmHg"}, {"measurement": "change of diastolic arterial pressure with isoprenaline", "setting": "isoprenaline; 10 mcg/kg isoprenaline I.V., 39.1 mg/kg I.D. cumulative, control 83", "result": 71, "unit": "mmHg"}, {"measurement": "cardiac rate after the product, with isoprenaline", "setting": "isoprenaline; 10 mcg/kg isoprenaline I.V., 39.1 mg/kg I.D. cumulative, control 273", "result": 255, "unit": "beats/minute"}, {"measurement": "effects of isoprenaline on arterial pressure and cardiac rate", "setting": "isoprenaline; after accumulated dose 39.1 mg/kg I.D.", "result": "very slightly reduced"}, {"measurement": "systolic pressure after the product, before noradrenaline", "setting": "noradrenaline; 39.1 mg/kg I.D. cumulative, control 153", "result": 149, "unit": "mmHg"}, {"measurement": "systolic pressure after the product, with noradrenaline", "setting": "noradrenaline; 2 mcg/kg noradrenaline I.V., 39.1 mg/kg I.D. cumulative, control 271", "result": 256, "unit": "mmHg"}, {"measurement": "hypertension with noradrenaline", "setting": "noradrenaline; after 39.1 mg/kg I.D. cumulative", "result": "slightly reduced"}, {"measurement": "minimal effective dose", "setting": "ectopic heart-beats; one dog", "result": 2.5, "unit": "mg/kg"}, {"measurement": "minimal effective dose", "setting": "ectopic heart-beats; the other dog", "result": 10, "unit": "mg/kg"}, {"measurement": "normal rhythm", "setting": "ectopic heart-beats; two dogs", "result": "re-established a normal rhythm in these two dogs"}, {"measurement": "number of ectopic beats caused by adrenaline+petroleum ether", "setting": "[1]", "result": "strongly reduces the number of ectopic beats"}, {"measurement": "Number of beats in 1 minute, sinusoidal", "setting": "[1]; 35 at dose 0", "result": 173}, {"measurement": "Number of beats in 1 minute, ectopic", "setting": "[1]; 163 at dose 0", "result": 26}, {"measurement": "sinusoidal beats", "setting": "[2]; 2.5 mg/kg I.V.", "result": "≥ 5", "unit": "%"}, {"measurement": "sinusoidal beats", "setting": "[2]; 5 mg/kg I.V., 5 minutes after injection", "result": 19, "unit": "%"}, {"measurement": "vomitting", "setting": "[2]; 10 mg/kg I.V.", "result": "brief vomitting"}, {"measurement": "sinusoidal beats", "setting": "[2]; 20 minutes after the injection", "result": 41, "unit": "%"}, {"measurement": "sinusoidal beats", "setting": "[2]; 40 minutes", "result": 25, "unit": "%"}, {"measurement": "sinusoidal beats", "setting": "[2]; 60 minutes", "result": 15, "unit": "%"}, {"measurement": "minimal effective dose", "setting": "[2]; Canis lupus familiaris, iv, I.V., zero sinusoidal beats in the control, read-out: dose from which sinusoidal beats increase", "result": 2.5, "unit": "mg/kg"}, {"measurement": "change of cardiac frequency", "setting": "[2]; after 10 mg/kg I.V.", "result": -25, "unit": "%"}, {"measurement": "cardiac frequency", "setting": "[2]; after 10 mg/kg I.V., from 231", "result": 174, "unit": "beats/minute"}, {"measurement": "ectopic beats referred to the total cardiac frequency", "setting": "[3]; 5 mg/kg I.V., control 100%", "result": 79, "unit": "%"}, {"measurement": "ectopic beats referred to the total cardiac frequency", "setting": "[3]; 10 mg/kg I.V., after 40 minutes", "result": 64, "unit": "%"}, {"measurement": "ectopic beats referred to the total cardiac frequency", "setting": "[3]; 10 mg/kg I.V., after 90 minutes", "result": 88, "unit": "%"}, {"measurement": "ectopic beats referred to the total cardiac frequency", "setting": "[3]; 10 minutes after 10 mg/kg I.V.", "result": 46, "unit": "%"}, {"measurement": "minimal effective dose", "setting": "[3]; Canis lupus familiaris, iv, I.V., adrenaline 5 mcg/kg I.V., read-out: dose from which ectopic beats caused by adrenaline are reduced", "result": 5, "unit": "mg/kg"}, {"measurement": "nictitating membrane", "setting": "awakened dog; 70 mg/kg I.V. total", "result": "released for 10 minutes"}, {"measurement": "vomiting, cumulative dose", "setting": "awakened dog; I.V., 5 minutes after the injection, hydrochloride", "result": "40 mg/kg and 70 mg/kg"}, {"measurement": "somnolence", "setting": "awakened dog; I.V., total 70 mg/kg", "result": "a certain somnolence was observed"}, {"measurement": "% of mice not presenting V.F.", "setting": "[4]; 5 mg/kg I.P.", "result": 22, "unit": "%"}, {"measurement": "% of mice not presenting V.F.", "setting": "[4]; 10 mg/kg I.P.", "result": 50, "unit": "%"}, {"measurement": "% of mice not presenting V.F.", "setting": "[4]; 20 mg/kg I.P.", "result": 70, "unit": "%"}, {"measurement": "appearance of incidents in the E.C.G. due to K-strophanthin", "setting": "[5]", "result": "significantly delays"}, {"measurement": "cardiac frequency", "setting": "[5]", "result": "does not significantly modify the cardiac frequency"}, {"measurement": "increase of cardiac frequency (average)", "setting": "[6]; 10 mg/kg I.V.", "result": 12, "unit": "beats/minute"}, {"measurement": "action on aconitine compared with quinidine", "setting": "[6]; 10 mg/kg I.V. vs quinidine 5 mg/kg", "result": "greater than that observed after pre-treatment with 5 mg/kg of quinidine"}, {"measurement": "cardiac frequency (conclusion, K-strophanthin and aconitine)", "setting": "[6]; 10 mg/kg I.V., anaesthetized guinea-pig", "result": "without modifying or with very moderate increase in the cardiac frequency"}, {"measurement": "appearance of incidents in the E.C.G. due to aconitine", "setting": "[6]; 10 mg/kg I.V., hydrochloride", "result": "significantly retards; also recorded: significantly delays"}, {"measurement": "treatment of cardiac arrhythmias in man", "setting": "cardiac arrhythmias", "result": "good results"}]}]}
